Paper PMC4222603, “Dual inhibition of HIV-1 replication by integrase-LEDGF allosteric inhibitors is predominant at the post-integration stage” (Retrovirology, 2013)
Like-named read-outs stand apart in the source and are kept apart here.

Assays:
[1] = system: HIV-1 NL4-3; assay: Antiviral assay in MT-4 cells, multiple-round infection, CellTiter-Glo; type: cell-based
Protocol: MT-4 cells growing exponentially at the density of 10^6/mL were infected with HIV-1 strain NL4-3 at a MOI (multiplicity of infection) of 0.001 for 2 h. The cells were washed with PBS and aliquoted, using 100 μL fresh complete RPMI, into 96-well white plates (Corning) in the presence of different concentrations of compounds.

[2] = system: VSV-G-pseudotyped NL4-3Δenv-luc; assay: microbe, parasite or virus in culture; type: cell-based, HIV-1; settings: for EC50: Human immunodeficiency virus 1, NL43, MT4, read-out: NL4-3 EC50 Single-round
[3] = system: NL4-3 Protease L10R, M46I, L63P, V82T, I84V; assay: Antiviral assay on PI-resistant virus; type: cell-based, HIV-1; settings: ratio EC50 resistant virus / wt virus
[4] = system: NL4-3 RT M41L, D67N, T69N, K70R, T215F, K219E; assay: Antiviral assay on NRTI-resistant virus; type: cell-based, HIV-1; settings: ratio EC50 resistant virus / wt virus
[5] = system: NL4-3 RT M41L, D67N, K103N, M184V, L210W, T215Y; assay: Antiviral assay on Multi-drug (NRTI + NNRTI) resistant virus; type: cell-based, HIV-1; settings: ratio EC50 resistant virus / wt virus; NRTI + NNRTI mutations
[6] = system: NL4-3 RT K103N, Y181C; assay: Antiviral assay on NNRTI-resistant virus; type: cell-based, HIV-1; settings: ratio EC50 resistant virus / wt virus
[7] = system: NL4-3 Integrase G140S, Q148H; assay: Antiviral assay on INSTI-resistant virus; type: cell-based, HIV-1; settings: ratio EC50 resistant virus / wt virus
[8] = molecular target: T1, IN-CCD/LEDGF-IBD interaction (Human immunodeficiency virus type 1 group M subtype B, UniProt P12497, F1332K); assay: HTRF-based CCD-IBD interaction assay; type: binding, HIV-1; settings: Table 1
T1 construct: cloning the integrase region (residues 50 to 202, encoding the catalytic core domain); made in house
Excerpt: All HTRF® conjugated monoclonal antibodies were purchased from Cisbio Bioassays.

[9] = molecular target: IN-LEDGF/p75 interaction (Human immunodeficiency virus type 1 group M subtype B, UniProt P12497); assay: biochemical; settings: IN-LEDGF IC50, Table 1; HTRF, full length proteins
Protocol: IN-LEDGF HTRF® assay was performed in 384-well low volume black polystyrene plates (Corning) using IN-LEDGF assay buffer (25 mM Tris–HCl pH 7.4, 150 mM NaCl, 2 mM MgCl2, 0.4 M KF, 0.1% Igepal CA-630, 0.1% bovine serum albumin, 1 mM DTT). […] The HTRF ratio was converted to % inhibition and analyzed by fitting a sigmoidal dose–response equation with Hill slope to determine the IC50 of the compound.

[10] = system: HxB2 HIV-1; assay: Antiviral assay in MT4 cells infected with HxB2; type: cell-based; settings: Human immunodeficiency virus 1, HXB2, MT4; Table 1; read-out: HxB2 EC50 (MT4 assays)
[11] = in vitro; type: cell-based; settings: human
Protocol: Growth inhibition was monitored in a proliferating human T-cell line (MT-4) with different concentrations of compounds. ATP levels were quantified using the CellTiter-Glo® luminescent reagent (Promega) to measure the ability of a compound to inhibit cell growth, an indication of the compound’s cytotoxicity. Cytotoxicity was evaluated at either day 2 or day 5.

[12] = molecular target: T2, IN strand transfer activity (Human immunodeficiency virus type 1 group M subtype B, UniProt P12497); assay: IN strand transfer ELISA assay; type: biochemical, HIV-1; settings: for IC50: Table 1, ELISA, read-out: IN ST IC50; for IN ST plateau (%): inhibition plateau, concentrations up to 100 μM
T2 construct: loaded on a Superdex 200 16/600 PG column (for full length IN); made in house
Protocol: IN strand transfer ELISA assay has been adapted from. […] 16 μL of IN mixture (20 mM HEPES pH 7.5, 10 mM MgCl2, 1 mM DTT, 0.50 μM His6-IN) was added. […] The reaction was stopped by addition of 60 μL stop mixture (20 mM Tris–HCl pH 7.6, 0.4 M NaCl, 10 mM Na2EDTA, 0.1 mg/mL salmon sperm DNA) and the volume transferred to Reacti-Bind high-binding capacity streptavidin-coated white plates (Thermo Scientific Pierce). After 1 h incubation at room temperature under gentle shaking, integrase and unjoined DNA were removed by three washes with 200 μL wash solution 1 (30 mM NaOH, 0.2 M NaCl, 1 mM Na2EDTA). 100 μL of 2000-fold diluted HRP-conjugated anti-DIG Fab (Roche Applied Science) was added and the plate was incubated for 1 h at 37°C. Unbound antibody was removed with wash solution 2 (PBS pH 7.4, 0.05% Tween-20, 0.1% bovine serum albumin), 100 μL of SuperSignal Femto ELISA substrate (Thermo Scientific Pierce) was added and chemiluminescence was immediately read in a PHERAstar Plus with LUM-plus module. The signal, converted to % inhibition, was analyzed by fitting a sigmoidal dose–response curve to determine IC50 and the inhibition plateau.

[13] = system: HIV-1 LAV virions produced by HeLa-LAV cells; assay: Virions produced by compound-treated HeLa-LAV cells: p24 and infectivity; type: cell-based; settings: luciferase assay in TZM cells
[14] = system: HIV-1 NL4-3 wt; type: cell-based
[15] = system: NL4-3 IN T174I mutant virus; type: cell-based, HIV-1
[16] = molecular target: His6-IN (HIV-1 NL4-3 integrase wild type, from pINSD.His) (HIV-1 NL4-3); assay: SEC; Superdex 200 10/300 GL, 0.4 mL/min, 50 mM HEPES pH 7.5, 1 M NaCl, 7 mM CHAPS, 5 mM MgCl2, 10 mM DTT, 10% glycerol, room temperature; His6-IN wt 21 uM or His6-IN A128T 40 uM; no compound
[17] = molecular target: His6-IN (HIV-1 NL4-3 integrase wild type, from pINSD.His) (HIV-1 NL4-3); assay: SEC; Superdex 200 10/300 GL, 0.4 mL/min, 50 mM HEPES pH 7.5, 1 M NaCl, 7 mM CHAPS, 5 mM MgCl2, 10 mM DTT, 10% glycerol, room temperature; His6-IN wt 21 uM or His6-IN A128T 40 uM incubated for 10 min with 100 uM BI-D or Mut101 before injection
[18] = Human immunodeficiency virus 1, NL43, MT4, Table 3, mean of two independent experiments, read-out: EC50 NL4-3 WT
[19] = Human immunodeficiency virus 1, NL43, MT4 cells, mean of six independent experiments, read-out: NL4-3 EC50 Multiple-round
[20] = Human immunodeficiency virus 1, NL43, MT4, Table 1, read-out: NL4-3 EC50 (MT4 assays)
[21] = HEK293T transfection, MT4 infection, CellTiter-Glo

Molecule	EC50 [2]	EC50 [1, 19]	SR/MR ratio [2]	IC50 [8]	IC50 [9]	EC50 [1, 20]	EC50 [10]	CC50 [11]	other results
Cc1cn([C@H]2C[C@H](N=[N+]=[N-])[C@@H](CO)O2)c(=O)[nH]c1=O [AZT, Zidovudine]	0.0025 ± 0.0003 µM	–	–	–	–	–	–	–	EC50 [1, 18]: 0.14 µM; EC50 fold change PI [3]: 1; EC50 fold change NRTIs [4]: 88; EC50 fold change Multi-drug [5]: 10; EC50 fold change NNRTIs [6]: 0.1; EC50 fold change INSTIs [7]: 0.4
O=C1Nc2ccc(Cl)cc2[C@@](C#CC2CC2)(C(F)(F)F)O1 [EFV, Efavirenz, reference compound]	0.0012 ± 0.0004 µM	0.0013 ± 0.0002 µM	0.9	–	–	–	–	–	–
COc1cc2c(cc1Cc1cccc(Cl)c1F)c(=O)c(C(=O)O)cn2[C@H](CO)C(C)C [EVG, Elvitegravir]	0.00042 ± 5e-05 µM	0.00086 ± 0.0004 µM	0.5	–	–	–	–	–	EC50 [1, 18]: 0.003 µM; EC50 fold change PI [3]: 1; EC50 fold change NRTIs [4]: 0.3; EC50 fold change Multi-drug [5]: 0.3; EC50 fold change NNRTIs [6]: 1; EC50 fold change INSTIs [7]: 2036
CC(C)(C)NC(=O)[C@@H]1CN(Cc2cccnc2)CCN1C[C@@H](O)C[C@@H](Cc1ccccc1)C(=O)N[C@H]1c2ccccc2C[C@H]1O [IDV, Indinavir]	–	0.036 µM	–	–	–	–	–	–	EC50 [1, 18]: 0.032 µM; NL4-3 EC50 Single-round [2]: Inactive; EC50 fold change PI [3]: 9; EC50 fold change NRTIs [4]: 1; EC50 fold change Multi-drug [5]: 1; EC50 fold change NNRTIs [6]: 1; EC50 fold change INSTIs [7]: 1
CC(C)(C)OC(C(=O)O)c1c(-c2ccc3c(c2)CCCO3)ccc2ncccc12 (stereo not shown) [Mut029, 2-(tert-butoxy)-2-[6-(3,4-dihydro-2H-1-benzopyran-6-yl)quinolin-5-yl]acetic acid]	30 ± 4 µM	3.8 ± 1.6 µM	8	1.7 µM	2.5 µM	3.8 µM	3.8 µM	> 50 µM	–
CC(C)(C)OC(C(=O)O)c1c(-c2ccc3c(c2)CCCO3)ccc2ccccc12 (stereo not shown) [Mut047, 2-(tert-butoxy)-2-[2-(3,4-dihydro-2H-1-benzopyran-6-yl)naphthalene-1-yl]acetic acid]	37 ± 2 µM	16 ± 7 µM	2.3	3.8 µM	7.9 µM	16 µM	19 µM	> 50 µM	IC50 [12]: 0.88 µM; IN ST plateau (%) [12]: 70%
Cc1nc2ccccc2c(C2CCCCC2)c1C(OC(C)(C)C)C(=O)O (stereo not shown) [Mut049, 2-(tert-butoxy)-2-(4-cyclohexyl-2-methylquinolin-3-yl)acetic acid]	41 ± 2 µM	2 ± 0.1 µM	21	18 µM	3.5 µM	2 µM	0.75 µM	> 50 µM	IC50 [12]: 0.18 µM; IN ST plateau (%) [12]: 56%
CC(C)(C)OC(C(=O)O)C1=C(c2ccc3c(c2)CCCO3)c2ccccc2OC1 (stereo not shown) [Mut062, 2-(tert-butoxy)-2-[4-(3,4-dihydro-2H-1-benzopyran-6-yl)-2H-chromen-3-yl]acetic acid]	–	3.3 ± 1.5 µM	>25	2.7 µM	3.1 µM	3.3 µM	1.3 µM	> 50 µM	IC50 [12]: 0.54 µM; IN ST plateau (%) [12]: 73%; Inhibition in single-round infection assay [2]: 30% @50
CC(C)(C)OC(C(=O)O)c1ccc(Oc2ccccc2)cc1-c1ccc2c(c1)CCCO2 (stereo not shown) [Mut063, 2-(tert-butoxy)-2-[2-(3,4-dihydro-2H-1-benzopyran-6-yl)-4-phenoxyphenyl]acetic acid]	–	–	–	> 100 µM	> 100 µM	> 50 µM	–	> 50 µM	IC50 [12]: > 100 µM; Infectivity of virions from treated HeLa-LAV cells [13]: no infectivity defect
Cc1nc2c(c(-c3ccccc3)c1C(OC(C)(C)C)C(=O)O)CCCC2 (stereo not shown) [Mut075, 2-(tert-butoxy)-2-(2-methyl-4-phenyl-5,6,7,8-tetrahydro-quinolin-3-yl)acetic acid]	–	3.4 ± 1 µM	>25	14 µM	4 µM	3.4 µM	1 µM	> 50 µM	Inhibition in single-round infection assay [2]: 23% @50
Cc1ccnc2c1NC(=O)c1cccnc1N2C1CC1 [NVP, Nevirapine]	0.041 ± 0.008 µM	0.086 ± 0.012 µM	–	–	–	–	–	–	EC50 [1, 18]: 0.16 µM; EC50 fold change PI [3]: 1; EC50 fold change NRTIs [4]: 3; EC50 fold change Multi-drug [5]: 14; EC50 fold change NNRTIs [6]: 287; EC50 fold change INSTIs [7]: 1
Cc1nnc(C(=O)NC(C)(C)c2nc(C(=O)NCc3ccc(F)cc3)c(O)c(=O)n2C)o1 [RAL, Raltegravir, reference compound]	0.0025 ± 0.0003 µM	–	–	–	–	–	–	–	EC50 ([1]; Human immunodeficiency virus 1, NL43, MT4, read-out: EC50 NL4-3 WT): 0.007 µM; EC50 ([1]; Human immunodeficiency virus 1, NL43, MT4, read-out: NL4-3 EC50 Multiple-round): 0.0024 ± 0.0006 µM; Infectivity of virions from treated HeLa-LAV cells [13]: no infectivity defect; Infectivity of NL4-3 wt virus produced in presence of compound [14, 21]: no effect; Infectivity of NL4-3 IN T174I virus produced in presence of compound [15, 21]: no effect
CC(C)(C)NC(=O)[C@@H]1C[C@@H]2CCCC[C@@H]2CN1C[C@@H](O)[C@H](Cc1ccccc1)NC(=O)[C@H](CC(N)=O)NC(=O)c1ccc2ccccc2n1 [SQV, Saquinavir, reference compound]	–	0.013 µM	–	–	–	–	–	–	NL4-3 EC50 Single-round [2]: Inactive; Infectivity of virions from treated HeLa-LAV cells [13]: strong virus infectivity defects; Infectivity of NL4-3 wt virus produced in presence of compound [14]: sensitive to and inactivated; Infectivity of NL4-3 IN T174I virus produced in presence of compound [15]: sensitive to and inactivated
His6-IN (HIV-1 NL4-3 integrase wild type, from pINSD.His) (enzyme)	–	–	–	–	–	–	–	–	stoichiometry N [16]: 2; stoichiometry N [17]: 4
